In patent US6660251B1, “Galenic formulation containing biotin” (Merck Patent GmbH, priority 1999, dated 2003):

What was measured:
[1] = system: HaCaT keratinocytes; assay: Investigations on the lipid (fatty acid) content of HaCaT keratinocytes under biotin; format: cell-based, human
Method: (§1) HaCaT cells (human adult low-calcium high-temperature keratinocytes) and native human keratinocytes are cultured in Gibco's keratinocyte serum-free medium (SFM) with addition of BPE (25 μg/ml bovine hypophysis extract) and rEGF (0.1-0.2 ng/ml, recombinant epidermal growth factor) in 5% strength CO2 atmosphere (pH 7.2-7.4) at 36.6° C. in the low-calcium status (0.09 mM) in culture flasks (1 million cells/20 ml of SFM) and treated with the biotin solution (biotin dissolved in buffer according to McIloaine; medium concentration 10^−7-10^−3 mol/l and solvent control) on the 3rd day after sowing. On the 6th day, the confluent monolayer is harvested and the samples are prepared, individual pellets up to 3 million cells each being used for the lipid extraction and for the protein determination.
The cells are extracted following the lipid extraction of Bligh and Dyer (B. E. Bligh et al. (1959) A rapid method of total lipid extraction and purification. Can. J. Biochem. Physiol. 37: 911-917). For this, the cell pellet is treated with 20 ml of a solvent mixture (chloroform: methanol=2:1), homogenized with stirring and extracted with shaking in the dark for 30 min. It is then filtered through a sterile filter and the extract is concentrated on a vacuum rotary evaporator.
(§2) The lipid film is taken up in 4 ml of methanol (gradient grade for HPLC) and analyzed via GC-MS.
The extracted lipids of the keratinocytes are analyzed as methanolic solutions via GC-MS in order to quantify the fatty acids contained therein. 100 μl of the solution are reacted with 1 μl each of 0.2 M trimethylsulfionium hydroxide to give methyl esters in order to improve the evaporability.
(§3) The protein content of the cells is determined according to the Lowry method using the protein assay kit. After preparation according to the procedure for the kit (P 5656), the measurement was carried out on an absorption reader at 690 nm.
The results of the influence of biotin on the fatty acid content of HaCaT keratinocytes are shown in FIGS. 1 to 4 for various concentrations of biotin (dissolved in buffer according to McIloaine). As control, the fatty acid content of the HaCaT keratinocytes after corresponding action of the buffer without biotin is moreover shown in FIGS. 1 to 4. The contents of the fatty acids myristic acid (MA), palmitic acid (PA), stearic acid (SA), oleic acid (OS) and linoleic acid (LA) are shown based on the protein content of the cells.

[2] = system: native human keratinocytes; assay: Investigations on the lipid (fatty acid) content of native human keratinocytes under biotin; format: cell-based; conditions: under the action of biotin
Method: as §1, with “determination. […]” for “determination.”
as §2
The extracted lipids of the keratinocytes are analyzed as methanolic solutions via GC-MS in order to quantify the fatty acids contained therein. […]
as §3

[3] = Penetration investigations on human skin ex vivo (FRANZ diffusion cell, 14C-biotin); format: in vitro ADME
Text: To characterize the penetration behavior of biotin from different emulsions in excised human skin, FRANZ's diffusion cell is chosen as an in-vitro model. The selection of the model is based on the experience of the authors, who were able to detect correlating results between the in-vitro data of the model and the in-vivo results (R. J. Feldmann, et al. (1970): Absorption of some organic compounds through the skin in man. J. Invest. Dermatol. 54: 399-404: T. J. Franz (1975): Percutaneous absorption. On the relevance of in vitro data. J. Invest. Dermatol. 64: 190-195). The basic unit of the FRANZ diffusion cell consists of a double-walled, temperature-controllable glass section. The acceptor liquid which is continuously kept in the homogeneous state by stirring is situated therein. In direct contact with the acceptor is the sample material on a gauze, which is stabilized by a glass ring and a metal clamp. A glass cover functions as evaporation protection for the upkeep of largely constant hydration conditions during the investigation period. […] It is determined quantitatively in fractionation of the detachments in pairs (10×2). […] Following this, the samples are measured in the liquid scintillation counter with addition of two blank values. […]

[4] = system: skin of old people; conditions: cited from earlier work
[5] = cited from earlier work

SMILES: O=C(O)CCCCC1SCC2NC(=O)NC21 (stereo not drawn) [biotin, hexahydro-2-oxiothieno [3,4-d]imidazole-4-valeric acid]
- concentration of linoleic acid (LA) ([1]; HaCaT keratinocytes, under the action of biotin): absence of an increase
- lipid synthesis power of keratinocytes ([1]; biotin concentration in the medium 10^−5 to 10^−3 mol/l): increased
- lipid synthesis power of keratinocytes ([1]; biotin concentration in the medium 10^−6 mol/l): inefficacious
- concentration of the fatty acids myristic acid (MA), palmitic acid (PA), stearic acid (SA) and oleic acid (OA) ([1]; culture of HaCaT keratinocytes, under the action of biotin): Increases
- effective biotin concentration ([1]; stimulation of lipid synthesis, from FIG. 2): 10^−5 mol/l
- concentration of linoleic acid (LA) [2]: absence of an increase
- concentration of the fatty acids myristic acid (MA), palmitic acid (PA), stearic acid (SA) and oleic acid (OA) [2]: Increases
- penetration of biotin through the horny layer of the human skin [3]: does not penetrate or does not penetrate in an efficacious concentration
- epithelial and histopathological changes in the areas treated ([4]; in vivo): not possible to show any epithelial and histopathological changes at all
- development of wrinkles on the skin of old people ([4]; topically applied formulations, biotin content 0.25% and 0.50%): visible reduction
- efficacy in soft, brittle and splitting nails, different forms of alopecia and atopic and seborrheic dermatitis ([5]; continuous biotin therapy): possible to show the efficacy
- side effects ([5]; in vivo): no side effects at all
